Experiments:
[1] = target: Serine/threonine-protein kinase 26 (Homo sapiens) (UniProt Q9P289); details: Compound concentration 1000.0 nM
[2] = target: cAMP-dependent protein kinase catalytic subunit PRKX (Homo sapiens) (UniProt P51817); details: Compound concentration 1000.0 nM
[3] = target: Fibroblast growth factor receptor 3 (Homo sapiens) (UniProt P22607); details: Compound concentration 1000.0 nM
[4] = tested on: Receptor-type tyrosine-protein kinase FLT3 (Homo sapiens), P36888 [UNDEFINED MUTATION]; details: Compound concentration 1000.0 nM
[5] = target: Cyclin-dependent kinase-like 1 (Homo sapiens) (UniProt Q00532); details: Compound concentration 1000.0 nM
[6] = target: Interleukin-1 receptor-associated kinase 3 (Homo sapiens) (UniProt Q9Y616); details: Compound concentration 1000.0 nM
[7] = target: Focal adhesion kinase 1 (Homo sapiens) (UniProt Q05397); details: Compound concentration 1000.0 nM
[8] = tested on: Epidermal growth factor receptor (Homo sapiens), P00533 [L858R,T790M]; details: Compound concentration 1000.0 nM
[9] = target: Serine/threonine-protein kinase 38-like (Homo sapiens) (UniProt Q9Y2H1); details: Compound concentration 1000.0 nM
[10] = target: Transient receptor potential cation channel subfamily M member 6 (Homo sapiens) (UniProt Q9BX84); details: Compound concentration 1000.0 nM
[11] = tested on: Proto-oncogene tyrosine-protein kinase receptor Ret (Homo sapiens), P07949 [V804M]; details: Compound concentration 1000.0 nM
[12] = target: Serine/threonine-protein kinase Sgk3 (Homo sapiens) (UniProt Q96BR1); details: Compound concentration 1000.0 nM
[13] = target: Serine/threonine-protein kinase Nek3 (Homo sapiens) (UniProt P51956); details: Compound concentration 1000.0 nM
[14] = target: Serine/threonine-protein kinase RIO2 (Homo sapiens) (UniProt Q9BVS4); details: Compound concentration 1000.0 nM
[15] = target: Casein kinase I isoform delta (Homo sapiens) (UniProt P48730); details: Compound concentration 1000.0 nM
[16] = target: 5-hydroxytryptamine receptor 2A (Homo sapiens) (UniProt P28223); details: Compound concentration 10.0 uM
[17] = target: Ephrin type-A receptor 5 (Homo sapiens) (UniProt P54756); details: Compound concentration 1000.0 nM
[18] = target: Serine/threonine-protein kinase 4 (Homo sapiens) (UniProt Q13043); details: Compound concentration 1000.0 nM
[19] = tested on: Proto-oncogene tyrosine-protein kinase receptor Ret (Homo sapiens), P07949 [M918T]; details: Compound concentration 1000.0 nM
[20] = target: Phosphatidylinositol 3-kinase C2 domain-containing subunit gamma (Homo sapiens) (UniProt O75747); details: Compound concentration 1000.0 nM
[21] = target: MAP kinase-interacting serine/threonine-protein kinase 1 (Homo sapiens) (UniProt Q9BUB5); details: Compound concentration 1000.0 nM
[22] = target: Tyrosine-protein kinase BTK (Homo sapiens) (UniProt Q06187); details: Compound concentration 1000.0 nM
[23] = target: Serine/threonine-protein kinase Nek5 (Homo sapiens) (UniProt Q6P3R8); details: Compound concentration 1000.0 nM
[24] = target: Tyrosine-protein kinase Fer (Homo sapiens) (UniProt P16591); details: Compound concentration 1000.0 nM
[25] = target: Phosphatidylinositol 4,5-bisphosphate 3-kinase catalytic subunit beta isoform (Homo sapiens) (UniProt P42338); details: Compound concentration 1000.0 nM
[26] = target: Myosin light chain kinase (Homo sapiens) (UniProt Q32MK0); details: Compound concentration 1000.0 nM
[27] = target: Dual specificity mitogen-activated protein kinase kinase 6 (Homo sapiens) (UniProt P52564); details: Compound concentration 1000.0 nM
[28] = tested on: Hepatocyte growth factor receptor (Homo sapiens), P08581 [Y1235D]; details: Compound concentration 1000.0 nM
[29] = tested on: Phosphatidylinositol 4,5-bisphosphate 3-kinase catalytic subunit alpha isoform (Homo sapiens), P42336 [C420R]; details: Compound concentration 1000.0 nM
[30] = tested on: Phosphatidylinositol 4,5-bisphosphate 3-kinase catalytic subunit alpha isoform (Homo sapiens), P42336 [E545A]; details: Compound concentration 1000.0 nM
[31] = target: Wee1-like protein kinase (Homo sapiens) (UniProt P30291); details: Compound concentration 1000.0 nM
[32] = target: Cyclin-dependent kinase 14 (Homo sapiens) (UniProt O94921); details: Compound concentration 1000.0 nM
[33] = target: NUAK family SNF1-like kinase 2 (Homo sapiens) (UniProt Q9H093); details: Compound concentration 1000.0 nM
[34] = target: Serine/threonine-protein kinase WNK4 (Homo sapiens) (UniProt Q96J92); details: Compound concentration 1000.0 nM
[35] = target: Activated CDC42 kinase 1 (Homo sapiens) (UniProt Q07912); details: Compound concentration 1000.0 nM
[36] = target: Ribosomal protein S6 kinase alpha-5 (Homo sapiens) (UniProt O75582); details: Compound concentration 1000.0 nM
[37] = target: Peripheral plasma membrane protein CASK (Homo sapiens) (UniProt O14936); details: Compound concentration 1000.0 nM
[38] = target: Tyrosine-protein kinase JAK1 (Homo sapiens) (UniProt P23458); details: Compound concentration 1000.0 nM
[39] = target: Proto-oncogene tyrosine-protein kinase Src (Homo sapiens) (UniProt P12931); details: Compound concentration 1000.0 nM
[40] = target: D(1B) dopamine receptor (Homo sapiens) (UniProt P21918); details: Compound concentration 10.0 uM
[41] = target: Homeodomain-interacting protein kinase 3 (Homo sapiens) (UniProt Q9H422); details: Compound concentration 1000.0 nM
[42] = target: Serine/threonine-protein kinase 35 (Homo sapiens) (UniProt Q8TDR2); details: Compound concentration 1000.0 nM
[43] = target: 5'-AMP-activated protein kinase catalytic subunit alpha-2 (Homo sapiens) (UniProt P54646); details: Compound concentration 1000.0 nM
[44] = target: Serine/threonine-protein kinase Nek2 (Homo sapiens) (UniProt P51955); details: Compound concentration 1000.0 nM

Phosphatidylinositol 4,5-bisphosphate 3-kinase catalytic subunit alpha isoform (Homo sapiens), P42336 [E545A], sequence (P42336 whole entry E545A, canonical isoform): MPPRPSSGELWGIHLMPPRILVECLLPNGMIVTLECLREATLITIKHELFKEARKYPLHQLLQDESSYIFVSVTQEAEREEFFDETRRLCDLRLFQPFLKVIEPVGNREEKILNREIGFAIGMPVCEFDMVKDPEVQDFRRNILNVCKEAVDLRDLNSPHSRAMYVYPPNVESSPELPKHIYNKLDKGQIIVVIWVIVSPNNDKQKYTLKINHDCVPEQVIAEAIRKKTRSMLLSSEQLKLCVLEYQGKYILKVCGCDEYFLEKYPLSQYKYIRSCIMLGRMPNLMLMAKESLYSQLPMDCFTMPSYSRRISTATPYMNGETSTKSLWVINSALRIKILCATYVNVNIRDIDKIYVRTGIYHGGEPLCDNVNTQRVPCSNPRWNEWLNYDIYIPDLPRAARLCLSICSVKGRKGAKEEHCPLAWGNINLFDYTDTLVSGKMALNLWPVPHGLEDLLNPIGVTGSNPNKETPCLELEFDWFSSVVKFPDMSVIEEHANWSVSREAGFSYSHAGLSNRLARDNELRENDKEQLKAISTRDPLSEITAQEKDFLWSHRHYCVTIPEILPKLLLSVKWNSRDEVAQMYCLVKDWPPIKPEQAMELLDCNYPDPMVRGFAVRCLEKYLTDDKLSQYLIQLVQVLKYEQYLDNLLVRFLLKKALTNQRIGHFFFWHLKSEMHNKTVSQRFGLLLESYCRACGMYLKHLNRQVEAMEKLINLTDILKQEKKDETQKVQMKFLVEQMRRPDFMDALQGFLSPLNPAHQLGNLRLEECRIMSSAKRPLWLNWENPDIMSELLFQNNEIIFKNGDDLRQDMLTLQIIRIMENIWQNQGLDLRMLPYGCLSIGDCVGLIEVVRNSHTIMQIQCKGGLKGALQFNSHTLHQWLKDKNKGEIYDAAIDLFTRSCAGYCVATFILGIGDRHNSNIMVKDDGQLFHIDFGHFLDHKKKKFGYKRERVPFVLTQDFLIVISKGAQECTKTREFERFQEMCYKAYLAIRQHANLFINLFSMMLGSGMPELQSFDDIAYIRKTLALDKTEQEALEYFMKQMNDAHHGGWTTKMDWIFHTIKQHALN
Fibroblast growth factor receptor 3 (Homo sapiens), sequence (P22607 23-806 limits assumed): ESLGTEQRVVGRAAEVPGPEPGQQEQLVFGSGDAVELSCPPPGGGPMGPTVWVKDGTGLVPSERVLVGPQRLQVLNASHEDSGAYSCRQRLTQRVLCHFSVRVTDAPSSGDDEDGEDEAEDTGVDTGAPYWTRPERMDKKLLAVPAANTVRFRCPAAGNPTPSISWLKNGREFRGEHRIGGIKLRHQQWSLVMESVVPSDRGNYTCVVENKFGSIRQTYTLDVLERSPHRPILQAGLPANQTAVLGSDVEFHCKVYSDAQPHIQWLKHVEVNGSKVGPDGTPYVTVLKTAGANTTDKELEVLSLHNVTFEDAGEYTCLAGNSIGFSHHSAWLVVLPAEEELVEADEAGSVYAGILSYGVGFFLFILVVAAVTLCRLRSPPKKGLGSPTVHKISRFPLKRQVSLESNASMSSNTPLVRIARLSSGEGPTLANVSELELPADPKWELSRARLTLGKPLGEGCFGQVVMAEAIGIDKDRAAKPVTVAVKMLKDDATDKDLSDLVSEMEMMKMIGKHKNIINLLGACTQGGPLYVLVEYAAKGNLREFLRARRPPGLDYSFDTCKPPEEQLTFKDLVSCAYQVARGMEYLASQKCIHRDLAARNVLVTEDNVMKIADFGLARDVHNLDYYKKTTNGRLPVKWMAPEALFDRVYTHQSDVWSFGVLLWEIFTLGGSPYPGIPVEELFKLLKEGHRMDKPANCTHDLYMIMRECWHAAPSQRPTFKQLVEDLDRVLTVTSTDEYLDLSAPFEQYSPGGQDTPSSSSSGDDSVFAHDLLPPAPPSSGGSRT
Serine/threonine-protein kinase 38-like (Homo sapiens), sequence (Q9Y2H1 2-464 limits assumed): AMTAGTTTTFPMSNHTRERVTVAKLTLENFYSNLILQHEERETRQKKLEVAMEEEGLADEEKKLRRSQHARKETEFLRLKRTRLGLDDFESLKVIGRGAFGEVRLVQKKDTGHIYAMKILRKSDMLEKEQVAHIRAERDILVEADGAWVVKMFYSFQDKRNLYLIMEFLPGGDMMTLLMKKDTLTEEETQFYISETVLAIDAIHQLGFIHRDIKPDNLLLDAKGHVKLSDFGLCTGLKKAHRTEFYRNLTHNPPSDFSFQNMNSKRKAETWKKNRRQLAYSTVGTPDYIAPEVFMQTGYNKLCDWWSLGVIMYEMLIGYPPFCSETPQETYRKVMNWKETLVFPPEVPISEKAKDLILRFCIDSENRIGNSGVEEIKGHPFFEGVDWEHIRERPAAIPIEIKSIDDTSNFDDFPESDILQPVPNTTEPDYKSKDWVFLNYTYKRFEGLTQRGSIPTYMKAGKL
Proto-oncogene tyrosine-protein kinase Src (Homo sapiens), sequence (P12931 2-536 limits assumed): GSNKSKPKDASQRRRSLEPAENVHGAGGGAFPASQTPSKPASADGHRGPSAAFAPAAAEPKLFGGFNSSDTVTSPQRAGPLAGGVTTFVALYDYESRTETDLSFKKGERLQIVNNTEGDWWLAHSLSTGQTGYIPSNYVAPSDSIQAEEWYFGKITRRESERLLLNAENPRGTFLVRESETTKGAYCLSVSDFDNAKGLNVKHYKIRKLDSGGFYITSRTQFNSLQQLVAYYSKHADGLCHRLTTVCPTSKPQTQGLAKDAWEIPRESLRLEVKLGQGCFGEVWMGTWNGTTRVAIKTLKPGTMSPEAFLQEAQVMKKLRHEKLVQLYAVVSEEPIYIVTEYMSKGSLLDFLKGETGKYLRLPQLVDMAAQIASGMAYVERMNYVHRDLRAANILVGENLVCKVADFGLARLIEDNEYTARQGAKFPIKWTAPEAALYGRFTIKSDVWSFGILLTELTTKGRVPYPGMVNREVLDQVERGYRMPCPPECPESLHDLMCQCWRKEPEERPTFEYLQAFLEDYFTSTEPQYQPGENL
5'-AMP-activated protein kinase catalytic subunit alpha-2 (Homo sapiens), sequence (P54646 whole entry, looked up): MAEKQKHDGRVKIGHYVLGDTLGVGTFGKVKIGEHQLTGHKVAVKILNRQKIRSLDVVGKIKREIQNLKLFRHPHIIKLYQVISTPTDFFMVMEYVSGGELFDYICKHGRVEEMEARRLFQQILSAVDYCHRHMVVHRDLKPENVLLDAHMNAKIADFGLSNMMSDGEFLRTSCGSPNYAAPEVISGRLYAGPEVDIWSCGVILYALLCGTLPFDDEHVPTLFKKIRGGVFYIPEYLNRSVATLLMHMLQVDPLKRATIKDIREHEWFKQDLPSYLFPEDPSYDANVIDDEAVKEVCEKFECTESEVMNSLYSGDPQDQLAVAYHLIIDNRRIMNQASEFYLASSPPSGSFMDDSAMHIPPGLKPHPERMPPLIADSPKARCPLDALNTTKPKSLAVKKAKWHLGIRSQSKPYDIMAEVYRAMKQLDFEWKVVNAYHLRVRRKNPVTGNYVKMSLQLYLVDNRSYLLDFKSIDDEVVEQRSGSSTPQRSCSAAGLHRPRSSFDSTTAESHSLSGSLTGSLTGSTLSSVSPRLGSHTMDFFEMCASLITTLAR
Phosphatidylinositol 4,5-bisphosphate 3-kinase catalytic subunit alpha isoform (Homo sapiens), P42336 [C420R], sequence (P42336 whole entry C420R, canonical isoform): as the sequence (P42336 whole entry E545A, canonical isoform) above, with C420R, A545E counted along it
cAMP-dependent protein kinase catalytic subunit PRKX (Homo sapiens), sequence (P51817 whole entry): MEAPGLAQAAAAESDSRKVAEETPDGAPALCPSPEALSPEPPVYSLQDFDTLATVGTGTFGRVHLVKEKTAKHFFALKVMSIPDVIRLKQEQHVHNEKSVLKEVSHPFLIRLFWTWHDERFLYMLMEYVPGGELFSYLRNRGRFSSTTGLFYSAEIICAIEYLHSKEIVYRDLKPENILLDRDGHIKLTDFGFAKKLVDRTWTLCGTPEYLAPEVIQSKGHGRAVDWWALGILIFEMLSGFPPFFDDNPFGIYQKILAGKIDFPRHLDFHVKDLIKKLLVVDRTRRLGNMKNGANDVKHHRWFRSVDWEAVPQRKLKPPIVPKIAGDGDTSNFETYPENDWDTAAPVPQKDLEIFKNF

CC(C)(O)c1cncc(-c2nc3ccc(F)cc3n2C2CC2)c1 [MSD-CYP11B2]
inactive: residual activity [1] 100% | residual activity [2] 100% | residual activity [3] 100% | residual activity [4] 100% | residual activity [5] 100% | residual activity [6] 100% | residual activity [7] 100% | residual activity [8] 92% | residual activity [9] 100% | residual activity [10] 100% | residual activity [11] 100% | residual activity [12] 100% | residual activity [13] 100% | residual activity [14] 100% | residual activity [15] 100% | inhibition [16] -0.31% | residual activity [17] 100% | residual activity [18] 100% | residual activity [19] 100% | residual activity [20] 100% | residual activity [21] 100% | residual activity [22] 83% | residual activity [23] 100% | residual activity [24] 100% | residual activity [25] 81% | residual activity [26] 87% | residual activity [27] 100% | residual activity [28] 100% | residual activity [29] 96% | residual activity [30] 90% | residual activity [31] 72% | residual activity [32] 100% | residual activity [33] 100% | residual activity [34] 100% | residual activity [35] 100% | residual activity [36] 100% | residual activity [37] 89% | residual activity [38] 80% | residual activity [39] 100% | inhibition [40] 21% | residual activity [41] 93% | residual activity [42] 100% | residual activity [43] 100% | residual activity [44] 100%

FC(F)(F)c1ccc2c(c1)nc(-c1cccnc1)n2C1CC1 [MSD-CYP11B2-Negative-control]
inactive: residual activity [1] 100% | residual activity [2] 100% | residual activity [3] 100% | residual activity [4] 100% | residual activity [5] 91% | residual activity [6] 100% | residual activity [7] 100% | residual activity [8] 100% | residual activity [9] 100% | residual activity [10] 100% | residual activity [11] 100% | residual activity [12] 100% | residual activity [13] 88% | residual activity [14] 100% | residual activity [15] 100% | inhibition [16] 4.15% | residual activity [17] 96% | residual activity [18] 100% | residual activity [19] 91% | residual activity [20] 100% | residual activity [21] 100% | residual activity [22] 93% | residual activity [23] 100% | residual activity [24] 100% | residual activity [25] 97% | residual activity [26] 100% | residual activity [27] 98% | residual activity [28] 100% | residual activity [29] 92% | residual activity [30] 90% | residual activity [31] 93% | residual activity [32] 100% | residual activity [33] 100% | residual activity [34] 100% | residual activity [35] 100% | residual activity [36] 100% | residual activity [37] 100% | residual activity [38] 85% | residual activity [39] 100% | inhibition [40] 22.5% | residual activity [41] 100% | residual activity [42] 100% | residual activity [43] 100% | residual activity [44] 100%
